Measured values taken from US20260224563A1, “CRYSTALLINE FORMS OF 6-(3-((5-CHLORO-2-METHOXYPYRIDINE)-3-SULFONAMIDO)-2,6-DIFLUOROPHENYL)-N-METHYLIMIDAZO[1,5-A]PYRAZINE-1-CARBOXAMIDE AND METHODS FOR USING THE SAME” (HIBERCELL, INC., priority 2023, published 2026).
Structures can show the parent of a compound that is named as a salt. Where two headings read alike, the source gives them in different places.

How the values were obtained:
[1] = Water activity study of the crystalline potassium salt forms (acetone/water suspension, XRPD); type: physicochemical; settings: KF wt. %>0.19, 25-50° C., KF wt. %~0.1, 25° C. in acetone/water
Procedure: A water activity study of the potassium salt forms was conducted in two groups: (i) Form I and Form III of the potassium salt, and (ii) Form II and Form III of the potassium salt.
Each suspension was shaken at 700 rpm in a shaker at 25° C., 35° C., 45° C., and 50° C., and the sample was analyzed by XRPD.

[2] = Pharmacokinetic study of HC-7366 via oral (PO) administration of different formulations in beagle dogs; type: in vivo; settings: dog, plasma, 7.5 mg/kg, PO 7.5 mpk, male beagle dogs
Procedure: 10 mL of 0.001 N HCl was used to wash the gavage catheter for each animal.

[3] = Solubility testing in organic solvents and water (visual, room temperature); type: physicochemical

## CNC(=O)c1ncn2cc(-c3c(F)ccc(NS(=O)(=O)c4cc(Cl)cnc4OC)c3F)ncc12 [Potassium salt Form III, 6-(3-((5-chloro-2-methoxypyridine)-3-sulfonamido)-2,6-difluorophenyl)-N-methylimidazo[1,5-a]pyrazine-1-carboxamide]
[1]; versus Form I of the potassium salt
  Relative stability of crystalline forms: more stable
[1]; versus Form II of the potassium salt
  Relative stability of crystalline forms: more stable
[2]; in a capsule, n=3
  bioavailability: ~50%
[3]; Acetone, listed as Form III of the Potassium Salt
  Solubility: ~500 µg/mL
[3]; BuOH, 24 °C, organic solvent or mixture, thermodynamic from solid, BuOH, read-out: Solubility
  Solubility: < 100 µg/mL
[3]; DCM, listed as Form III of the Potassium Salt
  Solubility: <100 µg/mL
[3]; DMSO, 24 °C, organic solvent or mixture, thermodynamic from solid, DMSO, read-out: Solubility
  Solubility: > 180000 µg/mL
[3]; DMSO, listed as Form III of the Potassium Salt
  Solubility: >180000 µg/mL
[3]; EtOAc, listed as Form III of the Potassium Salt
  Solubility: <100 µg/mL
[3]; EtOH, listed as Form III of the Potassium Salt
  Solubility: ~4000 µg/mL
[3]; H2O (water), listed as Form III of the Potassium Salt
  Solubility: ~1000 µg/mL
[3]; IPA, listed as Form III of the Potassium Salt
  Solubility: <100 µg/mL
[3]; IPAc, listed as Form III of the Potassium Salt
  Solubility: <100 µg/mL
[3]; MEK, listed as Form III of the Potassium Salt
  Solubility: <100 µg/mL
[3]; MTBE, 24 °C, organic solvent or mixture, thermodynamic from solid, MTBE, read-out: Solubility
  Solubility: < 100 µg/mL
[3]; MeCN, listed as Form III of the Potassium Salt
  Solubility: <100 µg/mL
[3]; MeOH, listed as Form III of the Potassium Salt
  Solubility: >40000 µg/mL
[3]; MeOH, listed as Form III of the potassium salt
  Solubility: > 40000 µg/mL
[3]; THF, listed as Form III of the Potassium Salt
  Solubility: <100 µg/mL
[3]; heptane, 24 °C, organic solvent or mixture, thermodynamic from solid, Heptane, read-out: Solubility
  Solubility: < 100 µg/mL

## CNC(=O)c1ncn2cc(-c3c(F)ccc(NS(=O)(=O)c4cc(Cl)cnc4OC)c3F)ncc12 [HC-7366-K, 6-(3-((5-chloro-2-methoxypyridine)-3-sulfonamido)-2,6-difluorophenyl)-N-methylimidazo[1,5-a]pyrazine-1-carboxamide]
[2]
  Tmax: 4 h
